Results as given in article PMC11571207, “Stereorandomized Oncocins with Preserved Ribosome Binding and Antibacterial Activity” (Journal of Medicinal Chemistry, 2024).
≈ marks a conversion by molar mass, not a printed value. Read-outs that look alike come from different tables or passages of the source. Non-standard residues stand in square brackets, D forms with d. Residues, ends and D or L forms follow the SMILES beside them.

How the values were obtained:
[1] = tested on: E. cloacae; assay: microbe, parasite or virus in culture; conditions: for MIC E. cloacae: supplement CSV
Procedure, shortened: (§1)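 Minimal inhibitory concentrations come from broth microdilution in MH medium, with a top peptide concentration of 64 μg/mL halved serially.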

[2] = tested on: K. pneumoniae OXA-48; assay: microbe, parasite or virus in culture; conditions: for MIC K. pneumoniae OXA-48: supplement CSV
Procedure, shortened: as §1

[3] = tested on: P. aeruginosa PA14 2P4 (pmrB); assay: microbe, parasite or virus in culture; conditions: for MIC P. aeruginosa PA14 2P4: supplement CSV
Procedure, shortened: as §1

[4] = tested on: P. aeruginosa PA14; assay: microbe, parasite or virus in culture; conditions: for MIC P. aeruginosa PA14: supplement CSV
Procedure, shortened: as §1

[5] = tested on: P. aeruginosa ZEM-1A; assay: microbe, parasite or virus in culture; conditions: for MIC P. aeruginosa ZEM-1A: supplement CSV
Procedure, shortened: as §1

[6] = tested on: P. aeruginosa ZEM9A; assay: microbe, parasite or virus in culture; conditions: for MIC P. aeruginosa ZEM9A: supplement CSV
Procedure, shortened: as §1

[7] = tested on: E. coli BW25113 WT; conditions: Table S1, 16-20 h at 37 °C
Procedure: (§2) Minimum inhibitory concentration assay
(§3) Antimicrobial activity was assayed against P. aeruginosa PAO1, K. pneumoniae NCTC418, E. coli W3110, A. baumannii ATCC 19606, methicillin-resistant S. aureus COL (MRSA), and for selected peptides on P. aeruginosa PA14 and the polymyxin-B-resistant derivative PA14 2P4, as well as the clinical isolates ZEM-1A and ZEM9A, K. pneumoniae OXA-48, S. aureus Newman, Enterobacter cloacae and Burkholderia cenocepacia. The minimal inhibitory concentration (MIC) was determined by using broth microdilution method. A colo ny of bacteria was picked and grown in Luria-Bertani (LB) medium overnight at 37°C. For E. coli BW25113 sbmA::kan the medium was supplemented with 25 mg/L of kanamycin. The next day, the culture was then regrown in LB medium to log phase (OD600 = 0.6 to 0.8), which lasted approximately 4 h, and diluted to an OD600 of 0.022 in the desired medium. Stock solutions of 1 mg/mL of the samples were prepared in sterilized milliQ water and diluted to the beginning concentration of 64 μg/mL in 300 μL Mueller Hinton (MH)-medium. The diluted samples were added to first well of 96-well microtiter plate (TPP, untreated, Faust Laborbedarf, AG, Schaffhausen) and diluted serially by ½. Finally, 4 μL of the bacterial suspension was inoculated into the sample solutions (150 μL/well) with a final inoculation of about 5∙10^5 CFU/mL. The plates were then incubated at 37°C for 15-18h. For each assay, sterility (broth only) and growth control (broth with bacterial inoculum, without antibiotics) were checked with two columns in the plate. The next day, 15 μL of 3-(4,5-dimethylthiazol-2-yl)-2,5-diphenyltetrazolium bromide (MTT) was added to each well of the plate, such a way that MIC was defined as the lowest concentration of the peptide that inhibited visible growth of the tested […]
(§4) Table S1. Activity of stereorandomized and diastereomeric oncocins against E. coli BW25113 WT and BW25113 sbmA::kan mutant in full and 12.5% MH, at pH 7.4. […]
(§5) a) Minimum inhibitory concentration (MIC, μg/mL) was determined on E. coli BW25113 WT and […]

[8] = tested on: E. coli BW25113 sbmA::kan; conditions: Table S1, sbmA::kan mutant, 16-20 h at 37 °C
Procedure: as §2, §3, §4, §5

[9] = tested on: P. aeruginosa PA14 4.13 (phoQ); conditions: for MIC P. aeruginosa PA14 4.13: supplement CSV
[10] = tested on: P. aeruginosa PA14 4.18 (pmrB); conditions: for MIC P. aeruginosa PA14 4.18: supplement CSV
[11] = tested on: human red blood cells; assay: Hemolysis assay, minimum hemolytic concentration
[12] = polymyxin B resistant strain, 12.5% MHB pH 7.4, 16–20 h at 37 °C
[13] = polymyxin B resistant strain, full MHB pH 7.4, 16–20 h at 37 °C
[14] = 12.5% Müller-Hinton medium pH 7.4
[15] = full Müller-Hinton medium pH 7.4

CC[C@@H](C)[C@@H](NC(=O)[C@@H](CCCNC(=N)N)NC(=O)[C@@H](CCCNC(=N)N)NC(=O)[C@H]1CCCN1C(=O)[C@H]1CCCN1C(=O)[C@@H](CCCNC(=N)N)NC(=O)[C@H]1CCCN1C(=O)[C@@H](CCCNC(=N)N)NC(=O)[C@H]1CCCN1C(=O)[C@@H](CC(C)C)NC(=O)[C@@H](Cc1ccc(O)cc1)NC(=O)[C@H]1CCCN1C(=O)[C@H]1CCCN1C(=O)[C@@H](CCCCN)NC(=O)[C@@H](CC(=O)O)NC(=O)[C@H](N)C(C)C)C(=O)N[C@H](Cc1ccc(O)cc1)C(=O)N[C@H](CC(N)=O)C(=O)N[C@H](CCCNC(=N)N)C(N)=O [D-Onc] (H-[dV][dD][dK][dP][dP][dY][dL][dP][dR][dP][dR][dP][dP][dR][dR][dI][dY][dN][dR]-NH2)
MIC E. cloacae, 12.5% MHB ([1]; 12.5% MHB pH 7.4, 16–20 h at 37 °C): 16 µg/mL (≈ 6.69 µM) | MIC E. cloacae, full MHB ([1]; full MHB pH 7.4, 16–20 h at 37 °C): > 64 µg/mL | MIC E. cloacae ([1]; 12.5% MH pH 7.4): 16 µg/mL (≈ 6.69 µM) | MIC E. cloacae ([1]; full MH pH 7.4): >64 µg/mL | MIC K. pneumoniae OXA-48, 12.5% MHB ([2]; carbapenem-resistant, 12.5% MHB pH 7.4, 16–20 h at 37 °C): >64/64 μg/mL | MIC K. pneumoniae OXA-48, full MHB ([2]; carbapenem-resistant, full MHB pH 7.4, 16–20 h at 37 °C): >64/64 μg/mL | MIC K. pneumoniae OXA-48 ([2]; 12.5% MH pH 7.4): 64 µg/mL (≈ 26.8 µM) | MIC K. pneumoniae OXA-48 ([2]; full MH pH 7.4): >64 µg/mL | MIC P. aeruginosa PA14 2P4 (pmrB), 12.5% MHB [3, 12]: 8 µg/mL (≈ 3.35 µM) | MIC P. aeruginosa PA14 2P4 (pmrB), full MHB [3, 13]: > 64 µg/mL | MIC P. aeruginosa PA14 2P4 ([3]; 12.5% MH pH 7.4): 8 µg/mL (≈ 3.35 µM) | MIC P. aeruginosa PA14 2P4 ([3]; full MH pH 7.4): >64 µg/mL | MIC P. aeruginosa PA14, 12.5% MHB ([4]; 12.5% MHB pH 7.4, 16–20 h at 37 °C, two different duplicate MIC determinations): 32 µg/mL (≈ 13.4 µM) | MIC P. aeruginosa PA14, full MHB ([4]; full MHB pH 7.4, 16–20 h at 37 °C, two different duplicate MIC determinations): > 64 µg/mL | MIC P. aeruginosa PA14 ([4]; 12.5% MH pH 7.4): 32 µg/mL (≈ 13.4 µM) | MIC P. aeruginosa PA14 ([4]; full MH pH 7.4): >64 µg/mL | MIC P. aeruginosa ZEM-1A, 12.5% MHB ([5]; clinical isolate, 12.5% MHB pH 7.4, 16–20 h at 37 °C, cells marked c: single measurement (in duplicates)): >64/>64 ^c μg/mL | MIC P. aeruginosa ZEM-1A, full MHB ([5]; clinical isolate, full MHB pH 7.4, 16–20 h at 37 °C, cells marked c: single measurement (in duplicates)): >64/>64 ^c μg/mL | MIC P. aeruginosa ZEM-1A ([5]; 12.5% MH pH 7.4): >64 µg/mL | MIC P. aeruginosa ZEM-1A ([5]; full MH pH 7.4): >64 µg/mL | MIC P. aeruginosa ZEM9A, 12.5% MHB ([6]; clinical isolate, 12.5% MHB pH 7.4, 16–20 h at 37 °C): 32 µg/mL (≈ 13.4 µM) | MIC P. aeruginosa ZEM9A, full MHB ([6]; clinical isolate, full MHB pH 7.4, 16–20 h at 37 °C): > 64 µg/mL | MIC P. aeruginosa ZEM9A ([6]; 12.5% MH pH 7.4): 32 µg/mL (≈ 13.4 µM) | MIC P. aeruginosa ZEM9A ([6]; full MH pH 7.4): >64 µg/mL | MIC E. coli BW25113 WT, 12.5% MH [7, 14]: 16 µg/mL (≈ 6.69 µM) | MIC E. coli BW25113 WT, Full MH [7, 15]: > 64 µg/mL | MIC E. coli BW25113 SbmA-, 12.5% MH [8, 14]: 16 µg/mL (≈ 6.69 µM) | MIC E. coli BW25113 SbmA-, Full MH [8, 15]: > 64 µg/mL | MIC P. aeruginosa PA14 4.13 (phoQ), 12.5% MHB [9, 12]: 16 µg/mL (≈ 6.69 µM) | MIC P. aeruginosa PA14 4.13 (phoQ), full MHB [9, 13]: > 64 µg/mL | MIC P. aeruginosa PA14 4.13 ([9]; 12.5% MH pH 7.4): 16 µg/mL (≈ 6.69 µM) | MIC P. aeruginosa PA14 4.13 ([9]; full MH pH 7.4): >64 µg/mL | MIC P. aeruginosa PA14 4.18 (pmrB), 12.5% MHB [10, 12]: 16 µg/mL (≈ 6.69 µM) | MIC P. aeruginosa PA14 4.18 (pmrB), full MHB [10, 13]: > 64 µg/mL | MIC P. aeruginosa PA14 4.18 ([10]; 12.5% MH pH 7.4): 16 µg/mL (≈ 6.69 µM) | MIC P. aeruginosa PA14 4.18 ([10]; full MH pH 7.4): >64 µg/mL | Haemolysis on hRBC, MHC ([11]; 2.5% human red blood cells (final) in 10 mM phosphate, 150 mM NaCl, pH 7.4, 25 °C, 4 h, visual inspection): >1000 µg/mL | MHC human red blood cells ([11]; supplement CSV): >1000 µg/mL
